The source of these data is patent US20210122730A1, “GLUCOCORTICOID RECEPTOR MODULATORS” (ORIC Pharmaceuticals, Inc., priority 2017, published 2021).

The target in this assay is T1, GR (Homo sapiens, UniProt P04150).
T1 construct: expressed in transfected cells; host or cells: CHO-K1
T1 sequence (P04150 1-777): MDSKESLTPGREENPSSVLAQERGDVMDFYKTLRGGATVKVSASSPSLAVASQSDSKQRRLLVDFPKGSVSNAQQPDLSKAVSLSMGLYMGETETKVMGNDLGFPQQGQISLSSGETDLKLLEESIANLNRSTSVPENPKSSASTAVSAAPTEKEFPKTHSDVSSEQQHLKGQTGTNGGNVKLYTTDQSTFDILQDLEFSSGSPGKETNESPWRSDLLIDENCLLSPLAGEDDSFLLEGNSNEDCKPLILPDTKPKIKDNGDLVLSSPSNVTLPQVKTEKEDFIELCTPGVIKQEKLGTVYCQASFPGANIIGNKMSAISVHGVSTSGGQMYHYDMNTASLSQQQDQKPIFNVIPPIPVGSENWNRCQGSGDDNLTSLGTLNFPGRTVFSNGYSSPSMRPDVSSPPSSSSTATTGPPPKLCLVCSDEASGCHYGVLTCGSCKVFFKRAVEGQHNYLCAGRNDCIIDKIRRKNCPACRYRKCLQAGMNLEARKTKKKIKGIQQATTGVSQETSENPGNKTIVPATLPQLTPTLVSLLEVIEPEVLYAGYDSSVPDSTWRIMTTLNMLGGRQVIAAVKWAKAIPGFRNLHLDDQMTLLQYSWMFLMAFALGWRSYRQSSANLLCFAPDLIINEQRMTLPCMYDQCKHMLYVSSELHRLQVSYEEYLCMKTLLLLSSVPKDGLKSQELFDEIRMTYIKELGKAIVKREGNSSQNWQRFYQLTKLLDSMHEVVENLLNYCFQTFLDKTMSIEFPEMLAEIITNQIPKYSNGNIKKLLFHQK
The assay is described as follows: In Vitro GR Luciferase Reporter Assay (antagonist mode, CHO-K1-GR-MMTV-Luc reporter cells). Format: cell-based. To be noted: antagonist assay with 10 nM Dexamethasone, 18-24 hours. From the text: Example A: In Vitro GR Luciferase Reporter Assay
Cell Line: CHO-K1-GR-MMTV-Luc reporter cells
Culture Media: DMEM (with phenol red)+10% FBS
Assay Media: DMEM (without phenol red)+10% CSS
Culture CHO-K1I-GR-MMTV-Luc reporter cells in 15 cm plates in Culture Media at conditions less than 90% confluence.
Prepare 200×DMSO 1:5 serial dilutions of control and test compounds in 96-well non-sterile V bottom plate in DMSO, 8serial dilutions for each compound.
Prepare 5× Assay Media diluted compound serial dilutions in 96-well non-sterile V bottom plate: Add 97.5 uL/well of Assay Media into 96-well then add 2.5 ul of 200× concentration of compounds and mix well.
Seed cells for Antagonist Assay: […] CHO-K1-GR-MMTV-Luc reporter cells were seeded in a Corning 3707 flat clear bottom 384-well white TC plate in 20 ul of Assay Media containing 12.5 nM Dexamethasone (final concentration=10 nM).
Add compounds: 5 ul of assay media diluted compounds were added to appropriate wells and followed a quick spin (1000 rpm, 10 sec) to bring media and cells to the bottom of plate. The plates were covered with SealMate film to avoid evaporation and placed in 37° C. incubator for approximately 18-24 hours.
Read plates: Equilibrate appropriate amount of Promega OneGlo luciferase reagent to room temperature. Remove the plates from incubator and add 25 uL of OneGlo reagent/well by multiple channel pipette and read the plates with Tecan F500 luminometer within 3 minutes.
The ability of the compounds disclosed herein to inhibit GR activity was quantified and the respective IC50 value was determined. Table 1and Table 2provide the cellular IC50 values of compounds disclosed herein.
The compound `O=C(c1ccccc1)N(C1CC1)[C@H]1CCC2=Cc3c(cnn3-c3ccc(F)cc3)C[C@]2(C(=O)c2ccccn2)C1` [Example 6, N-Cyclopropyl-N-((4aS,6S)-1-(4-fluorophenyl)-4a-picolinoyl-4,4a,5,6,7,8-hexahydro-1H-benzo[f]indazol-6-yl)benzamide] gave an IC50 not above 100 nM.

On to `O=C(c1ccccn1)[C@]12Cc3cnn(-c4ccc(F)cc4)c3C=C1CC[C@H](S(=O)(=O)N1CCCCC1)C2` [Example 7, [(4aS,6S)-1-(4-Fluorophenyl)-6-(1-piperidylsulfonyl)-5,6,7,8-tetrahydro-4H-benzo[f]indazol-4a-yl]-(2-pyridyl)methanone], for which the IC50 is not above 100 nM.

Take `Cc1ccc(S(=O)(=O)[C@H]2CCC3=Cc4c(cnn4-c4ccc(F)cc4)C[C@]3(C(=O)c3nccs3)C2)cc1` [Example 8, ((4aS,6S)-1-(4-fluorophenyl)-6-tosyl-1,4,5,6,7,8-hexahydro-4aH-benzo[f]indazol-4a-yl)(thiazol-2-yl)methanone]: the IC50 is not above 100 nM.

`Cc1ccc(S(=O)(=O)[C@@H]2CCC3=Cc4c(cnn4-c4ccc(F)cc4)C[C@]3(C(=O)c3nccs3)C2)cc1` [Example 9, ((4aS,6R)-1-(4-fluorophenyl)-6-tosyl-1,4,5,6,7,8-hexahydro-4aH-benzo[f]indazol-4a-yl)(thiazol-2-yl)methanone] gave an IC50 not above 100 nM.

For the compound `O=C(c1ccccn1)[C@]12Cc3cnn(-c4ccc(F)cc4)c3C=C1CC[C@H](S(=O)(=O)c1ccc(C(F)(F)F)cc1)C2` [Example 10, ((4aS,6S)-1-(4-fluorophenyl)-6-((4-(trifluoromethyl)phenyl)sulfonyl)-1,4,5,6,7,8-hexahydro-4aH-benzo[f]indazol-4a-yl)(pyridin-2-yl)methanone], the IC50 was not above 100 nM.

In the case of `O=C(c1ccccn1)[C@]12Cc3cnn(-c4ccc(F)cc4)c3C=C1CC[C@@H](S(=O)(=O)c1ccc(C(F)(F)F)cc1)C2` [Example 11, ((4aS,6R)-1-(4-fluorophenyl)-6-((4-(trifluoromethyl)phenyl)sulfonyl)-1,4,5,6,7,8-hexahydro-4aH-benzo[f]indazol-4a-yl)(pyridin-2-yl)methanone], the IC50 is not above 100 nM.

`O=C(c1nccs1)[C@]12Cc3cnn(-c4ccc(F)cc4)c3C=C1CC[C@H](S(=O)(=O)c1ccc(C(F)(F)F)cc1)C2` [Example 12, ((4aS,6S)-1-(4-fluorophenyl)-6-((4-(trifluoromethyl)phenyl)sulfonyl)-1,4,5,6,7,8-hexahydro-4aH-benzo[f]indazol-4a-yl)(thiazol-2-yl)methanone] came in with a half-maximal inhibitory concentration (IC50) of 100 to 1000 nM.

Take `O=C(c1nccs1)[C@]12Cc3cnn(-c4ccc(F)cc4)c3C=C1CC[C@@H](S(=O)(=O)c1ccc(C(F)(F)F)cc1)C2` [Example 13, ((4aS,6R)-1-(4-fluorophenyl)-6-((4-(trifluoromethyl)phenyl)sulfonyl)-1,4,5,6,7,8-hexahydro-4aH-benzo[f]indazol-4a-yl)(thiazol-2-yl)methanone]: the IC50 fell in the range of 100 to 1000 nM.

For the compound `O=C(c1cc(C(F)(F)F)ccn1)[C@]12Cc3cnn(-c4ccc(F)cc4)c3C=C1CC[C@H](S(=O)(=O)c1ccc(F)c(F)c1)C2` [Example 14, ((4aS,6S)-6-((3,4-difluorophenyl)sulfonyl)-1-(4-fluorophenyl)-1,4,5,6,7,8-hexahydro-4aH-benzo[f]indazol-4a-yl)(4-(trifluoromethyl)pyridin-2-yl)methanone], the IC50 was not above 100 nM.

Turning to `Cc1ccc(S(=O)(=O)[C@H]2CCC3=Cc4c(cnn4-c4ccc(F)cc4)C[C@]3(C(=O)c3cc(C(F)(F)F)ccn3)C2)cc1` [Example 15, ((4aS,6S)-1-(4-fluorophenyl)-6-tosyl-1,4,5,6,7,8-hexahydro-4aH-benzo[f]indazol-4a-yl)(4-(trifluoromethyl)pyridin-2-yl)methanone], the concentration for half-maximal inhibition (IC50) is not above 100 nM.

Take `O=C(c1ccccn1)[C@]12Cc3cnn(-c4ccc(F)cc4)c3C=C1CC[C@@H](S(=O)(=O)c1ccc(F)c(F)c1)C2` [Example 16, ((4aS,6R)-6-((3,4-difluorophenyl)sulfonyl)-1-(4-fluorophenyl)-1,4,5,6,7,8-hexahydro-4aH-benzo[f]indazol-4a-yl)(pyridin-2-yl)methanone]: the IC50 is not above 100 nM.

`O=C(c1cc(C(F)(F)F)ccn1)[C@]12Cc3cnn(-c4ccc(F)cc4)c3C=C1CC[C@@H](S(=O)(=O)c1cccc(C(F)(F)F)c1)C2` [Example 17, ((4aS,6R)-1-(4-fluorophenyl)-6-((3-(trifluoromethyl)phenyl)sulfonyl)-1,4,5,6,7,8-hexahydro-4aH-benzo[f]indazol-4a-yl)(4-(trifluoromethyl)pyridin-2-yl)methanone] had an IC50 not above 100 nM.

As for `O=C(c1ccccn1)[C@]12Cc3cnn(-c4ccc(F)cc4)c3C=C1CC[C@@H](S(=O)(=O)c1cccc(C(F)(F)F)c1)C2` [Example 18, ((4aS,6R)-1-(4-fluorophenyl)-6-((3-(trifluoromethyl)phenyl)sulfonyl)-1,4,5,6,7,8-hexahydro-4aH-benzo[f]indazol-4a-yl)(pyridin-2-yl)methanone], the IC50 is not above 100 nM.

`COc1ccc(S(=O)(=O)[C@H]2CCC3=Cc4c(cnn4-c4ccc(F)cc4)C[C@]3(C(=O)c3ccccn3)C2)cc1` [Example 19, ((4aS,6S)-1-(4-fluorophenyl)-6-((4-methoxyphenyl)sulfonyl)-1,4,5,6,7,8-hexahydro-4aH-benzo[f]indazol-4a-yl)(pyridin-2-yl)methanone] returned an IC50 not above 100 nM.

With `O=C(c1ccccn1)[C@]12Cc3cnn(-c4ccc(F)cc4)c3C=C1CC[C@H](S(=O)(=O)c1ccccc1)C2` [Example 20, ((4aS,6S)-1-(4-fluorophenyl)-6-(phenylsulfonyl)-1,4,5,6,7,8-hexahydro-4aH-benzo[f]indazol-4a-yl)(pyridin-2-yl)methanone], the IC50 was not above 100 nM.

Take `O=C(c1ccccn1)[C@]12Cc3cnn(-c4ccc(F)cc4)c3C=C1CC[C@H](S(=O)(=O)Cc1ccccc1)C2` [Example 21, ((4aS,6S)-6-(benzylsulfonyl)-1-(4-fluorophenyl)-1,4,5,6,7,8-hexahydro-4aH-benzo[f]indazol-4a-yl)(pyridin-2-yl)methanone]: the IC50 is not above 100 nM.

The compound `O=C(c1ccccn1)[C@]12Cc3cnn(-c4ccc(F)cc4)c3C=C1CC[C@H](S(=O)(=O)c1ccc(F)c(F)c1)C2` [Example 22, ((4aS,6S)-6-((3,4-difluorophenyl)sulfonyl)-1-(4-fluorophenyl)-1,4,5,6,7,8-hexahydro-4aH-benzo[f]indazol-4a-yl)(pyridin-2-yl)methanone] displayed an IC50 not above 100 nM.

`Cc1ccnc(C(=O)[C@]23Cc4cnn(-c5ccc(F)cc5)c4C=C2CC[C@H](S(=O)(=O)c2cnn(C)c2)C3)c1` [Example 23, ((4aS,6S)-1-(4-fluorophenyl)-6-((1-methyl-1H-pyrazol-4-yl)sulfonyl)-1,4,5,6,7,8-hexahydro-4aH-benzo[f]indazol-4a-yl)(4-methylpyridin-2-yl)methanone] showed a concentration for half-maximal inhibition (IC50) not above 100 nM.

In turn, `O=C(c1ccccn1)[C@]12Cc3cnn(-c4ccc(F)cc4)c3C=C1CC[C@@H](S(=O)(=O)c1ccccc1)C2` [Example 24, ((4aS,6R)-1-(4-fluorophenyl)-6-(phenylsulfonyl)-1,4,5,6,7,8-hexahydro-4aH-benzo[f]indazol-4a-yl)(pyridin-2-yl)methanone] had an IC50 not above 100 nM.

`O=C(c1ccccn1)[C@]12Cc3cnn(-c4ccc(F)cc4)c3C=C1CC[C@H](S(=O)(=O)c1ccc(F)cc1)C2` [Example 25, ((4aS,6S)-1-(4-fluorophenyl)-6-((4-fluorophenyl)sulfonyl)-1,4,5,6,7,8-hexahydro-4aH-benzo[f]indazol-4a-yl)(pyridin-2-yl)methanone] had an IC50 not above 100 nM.

Regarding `O=C(c1ccccn1)[C@]12Cc3cnn(-c4ccc(F)cc4)c3C=C1CC[C@H](S(=O)(=O)c1ccccn1)C2` [Example 26, ((4aS,6S)-1-(4-fluorophenyl)-6-(pyridin-2-ylsulfonyl)-1,4,5,6,7,8-hexahydro-4aH-benzo[f]indazol-4a-yl)(pyridin-2-yl)methanone], the IC50 is not above 100 nM.
